Data from patent US20100254965A1, “Adenosine Signaling in Diagnosis, Treatment, and Prevention of Priapism and Erectile Dysfunction” (BOARD OF REGENTS ,THE UNIVERSITY OF TEXAS SYSTEM, priority 2006, published 2010).
Entries after “also recorded” stand apart in the source; their conditions may differ.

Key:
[1] = test system: corpus cavernosal smooth muscle cells (CCSM); assay: cAMP production in primary corpus cavernosal / penile vascular smooth muscle cells (CCSM, PVSM); format: cell-based, mouse; details: 10 min
Description: PVSM were isolated and cultured from mouse penes. The cells were be switched to serum-free medium and treated with different concentrations of adenosine with or without A2B antagonist (MRS1706-1 μM) or A2A agonist (CGS-21680-1 μM) alone for 10 min. Then cellular extracts were collected and cAMP levels were measured using an ELISA kit. The data represent mean±SE.
Data are presented as mean±SE. *, p<0.01.
(§1) FIG. 18. Adenosine stimulated both cAMP and cGMP induction in corpus cavernosal smooth muscle cells (CCSM) via A2BR activation. (a) Adenosine receptor expression profile in purified primary CCSM. CCSM were purified from adult mouse penes. […] (b) CCSM were isolated and cultured from mouse penes. The cells were switched to serum-free medium and treated with different concentrations of adenosine with or without A2BR antagonist (MRS1706-10 μM), A2AR antagonist (ZM241385-50 nM) or A2AR agonist (CGS-21680-10 μM) alone for 10 min. Then cellular extracts were collected and cAMP levels were measured using an ELISA kit. The data represent mean±SE. *p<0.05, adenosine treated versus the untreated; **p<0.05, adenosine plus MRS1706 or ZM241385 versus the adenosine treated. (c) CCSM were isolated from penes of the wild type and A2BR-deficient mice and cultured with or without adenosine (100 μM), NECA (10 μM), a potent adenosine receptor agonist, forskolin (10 μM), an adenylyl cyclase agonist. After 10 min treatment, the cellular extracts were collected and cAMP levels were measured by using a commercial enzyme immunoassay kit (Amersham Pharmacia). N=4. *p<0.05, adenosine, forskolin and NECA treated versus the untreated control. (d) Corpus cavernosal strips (CCS) were isolated from wild type and A2BR-deficient mice and treated with different concentrations of adenosine in the presence or absence of L-NAME (100 μM) or MRS1706 (10 μM). 10 min after treatment, cellular extracts were collected and cGMP levels were measured by using a commercial enzyme immunoassay kit (Amersham Pharmacia). Data are expressed as mean±SE. *p<0.05, adenosine treated versus the control; **p<0.05, adenosine treated with MRS1706 versus the adenosine treated; ***p<0.05, CCS of A2BR-deficient mice treated with adenosine versus the CCS of wild type mice treated with adenosine. N=6-7. (e) CCSM were isolated from wild type and A2BR deficient mice and cultured with or without adenosine (100 μM), NECA (10 μM), a potent adenosine receptor agonist, forskolin (10 μM), an adenylyl cyclase agonist, or diethylamine-NONOate (DEA/NO) (10 μM). After 10 min treatment, the cellular extracts were collected and cAMP levels were measured by using a commercial enzyme immunoassay kit (Amersham Pharmacia). N=4. *p<0.05, DEA/NO treated versus to the untreated control. (f) Both cAMP and cGMP induction contribute to adenosine-mediated decreased PE-induced phosphorylation of myosin light chain (MLC). CCSM and CCS were isolated and cultured with the treatment of phenylephrine (PE-10 μM) in the presence or absence of adenosine (100 μM) or L-NAME (100 μM). 10 min after treatment, cellular extracts were isolated and western blot analysis were performed. The total MLC and phosphorylated MLC at S20 were detected by specific antibodies.
(§2) Isolation of primary corpus cavernosal smooth muscle cells (CCSM). Corpus cavernosum tissues were dissected as described above. Cavernosal tissue was washed in PBS and minced into […] pieces. Segments were incubated in 5-10 ml enzyme solutions containing 0.02% collagenase A (0.272 U/mg protein, Roche, Mannheim, Germany) and 0.5% elastase (3.73 U/mg protein, Cell system, St Katharinen, Germany) in a 75 mm flask at 37° C. for 6 hours. Enzymatic digestion was terminated by adding 10 ml DMEM supplemented with 10% fetal calf serum (FCS). […]

[2] = test system: corpus cavernosal smooth muscle cells (CCSM); assay: cGMP levels in primary CCSM / PVSM; format: cell-based, mouse; details: CCSM/PVSM of both wild type and A2BR deficient mice, 10 min
Excerpt: Results for wild-type and A2B^−/− mouse were statistically significant, p<0.01.
as §1, with “After 10 min treatment, the cellular extracts were collected and cAMP levels were measured by using a commercial enzyme immunoassay kit (Amersham Pharmacia).” left out
as §2
Tissue and corpus cavernosum smooth muscle cell (CCSM) cAMP and cGMP measurement. Quantitative assays for cAMP and cGMP were performed by using a commercial enzyme immunoassay kit (Amersham Pharmacia). […]

[3] = test system: corpus cavernosum of wild type, A2A-deficient and A2B-deficient mice; assay: Intracavernous injection of adenosine: intracavernous pressure (ICP) and penile erection; format: in vivo, mouse; details: wild type mice
Description: FIG. 6. Different amounts of adenosine were injected into the corpus cavernosum of wild type, adenosine receptor A2A-deficient, and adenosine receptor A2B-deficient mice and the resulting change in ICP determined.
Methods: ADA-deficient mice and SCD transgenic mice, a well accepted priapism animal model, are the only animals known in which a persistent and prolonged penile erection occurs spontaneously. […] We have measured intracavernosal pressure and corpus cavernosal strip (CCS) relaxation with or without PEG-ADA treatment and/or a series of adenosine receptor antagonists or agonists in wild type ADA-deficient mice, and corpus cavernosal strip (CCS) relaxation with or without PEG-ADA treatment and/or a series of adenosine receptor antagonists or agonists in SCD transgenic mice, in response to nerve stimulation. We have also measured the intracavernosal pressure and CCS relaxation with or without adenosine treatment in wild type and multiple adenosine receptor deficient mice.

[4] = test system: corpus cavernosal strips (CCS); assay: Adenosine-induced relaxation of corpus cavernosal strips (CCS); format: cell-based, mouse; details: CCS of wild type mice, DCF 5 μM or 0-100 uM with adenosine 100 μM; listed as DCF
Description: FIG. 16. […] CCS of wild type mice were treated with different concentrations of adenosine with or without DCF (5 μM), a specific inhibitor of adenosine deaminase. Then the extent (mN) of force was monitored. (b) CCS of wild type mice were treated with 100 μM adenosine in the presence of different concentrations of DCF (0-100 uM). Then the extent of force was measured. Data are expressed as mean±SE. *p<0.05, adenosine treated versus the control, **p<0.05, DCF treated versus the adenosine treated.
FIG. 17. A2BR signaling is required for adenosine-mediated corpus cavernosal strips (CCS) relaxation. (a) CCS of wild type mice were treated with different concentrations of theophiline (1-10 μM) in the presence or absence of adenosine (100 μM). The force changes were measured by force transducer. Data are expressed as mean±SE. *p<0.05, adenosine treated versus the control, **p<0.05, theophiline treated versus the untreated, N=5. (b) CCS from wild type, A2AR, A1R A2BR and A3R-deficient mice were treated with different concentrations of adenosine. The relaxation was measured by force transducer. Data are expressed as mean±SE. *p<0.05, adenosine treated versus the wild type. (c) CCS were isolated from wild type and A2BR-deficient mice and treated with different concentrations of adenosine in the presence or absence of L-NAME (100 μM) or MRS1706 (10 μM). 10 min after treatment, cellular extracts were collected and cAMP levels were measured by using a commercial enzyme immunoassay kit (Amersham Pharmacia). Data are expressed as mean±SE. *p<0.05, adenosine treated versus the control without treatment; **p<0.05, adenosine treated with MRS1706 versus the adenosine treated alone; ***p<0.05, CCS of A2BR-deficient mice treated with adenosine versus the CCS of wild type mice treated with adenosine. N=6-7. (d) CCS of A2BR and ADA double deficient mice lost the hypersensitivity to nerve stimulation compared to ADA deficient mice.
Function experiments. The tunica albuginea was cut longitudinally, starting at the most proximal point of the corpus cavernosum (CC) toward the penile shaft, and the erectile tissue was partially dissected free from the tunica. One strip of tissue (0.3×0.3×3 mm) was obtained from each corpus cavernosum. The contractility of each isolated corpus cavernosum smooth muscle cells (CCSM) strip was measured using an isometric force transducer (AD Instrument Inc., Georgia, Vt., USA). The strip was mounted in a thermostatically controlled tissue bath containing aerated PSS (mM: 119 NaCl, 4.7 KCl, 24 NaHCO 3, 1.2 KH2PO4, 2.5 CaCl2, 1.2 MgSO4, 0.023 EDTA, and 11 glucose; 5 ml volume, 95% O2 and 5% CO2, 37° C.) and stretched to a resting tension of 0.1 mN. The contractile responses of the strips were analysed by adding 10 μM phenylephrine to the bath, and force changes were recorded in response to drug application and to electrical field stimulation. The particular electrical field stimulation parameters of 0-30V, 30 HZ with a pulse width of approximately 0.5 ms, are commonly used in the mice. […] The changes of cAMP and cGMP contents in CC strips were subsequently measured by commercial enzyme immunoassay kit (Amersham Pharmacia) (see below).

[5] = wild type CCSM/PVSM, agent alone

Q: How did the cAMP production [1, 5] turn out when `CCNC(=O)[C@H]1O[C@@H](n2cnc3c(N)nc(NCCc4ccc(CCC(=O)O)cc4)nc32)[C@H](O)[C@@H]1O` [CGS21690C] was run?
A: The cAMP production was “failed to induce cAMP production”.

Q: For `CCN(CC)/[N+]([O-])=N/O.CCNCC` [DEA/NO, diethylamine-NONOate], which cGMP levels [2] is on record?
A: The cGMP levels was “induced cGMP production”.

Q: And the cGMP levels ([2]; listed as diethylamine-NONOate)?
A: Its cGMP levels is “comparable high levels of cGMP production”.

Q: `CCNC(=O)[C@H]1O[C@@H](n2cnc3c(N)ncnc32)[C@H](O)[C@@H]1O` [NECA, 5′-N-ethylcarbosamide adenosine] was tested. Which cGMP levels [2] did it give?
A: The cGMP levels was “lack of significant differences in cGMP production; also recorded: had no effect”.

Q: And the cAMP production ([1]; CCSM/PVSM of A2BR deficient (A2B-/-) mice)?
A: The cAMP production was “essentially no effect on cAMP levels; also recorded: failed to induce cAMP production”.

Q: What about the cAMP production [1, 5] of the same molecule?
A: Its cAMP production is “elevate cAMP levels; also recorded: induced cAMP”.

Q: `OC[C@H]1O[C@@H](n2cnc3c2NC=NC[C@H]3O)C[C@@H]1O` [deoxycoformycin] was tested. Which “adenosine-induced penile erection with ADA inhibitor” value ([3]; co-injected with adenosine) did it give?
A: Its value is “prolonged”.

Q: What about the “adenosine-induced increase in pressure (ICP) with ADA inhibitor” value ([3]; coinjection with adenosine) of the same molecule?
A: Its value is “prolonged the adenosine-induced increase in pressure”.

Q: What about the “adenosine-induced CCS relaxation with ADA inhibitor versus adenosine alone” value [4] of the same molecule?
A: Its value is “significantly increased relaxation compared with adenosine alone; also recorded: increased the adenosine induced relaxation of CCS”.
